Experimental data as given in PubChem BioAssay AID504489 (Sanford-Burnham Center for Chemical Genomics, 2011).
Activity calls are given as the source filed them.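 How the source made its calls: active means IC50 at or below 20 µM; inactive means the rest.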

What follows are molecules tested on 697 B-cell NF-kB luciferase, PMA/ionomycin, luminescence 16 h (assay: NF-kB reporter signal decrease in 697 cells – B- and T-cell screen hits, luminescence, SAR follow-up (AID 504489)).
For `Cc1ccc2cccc(NS(=O)(=O)c3ccccc3)c2n1`, the IC50 was > 79000 nM (inactive).
With `COc1cc(N)c2ncccc2c1` the IC50 was > 79000 nM (inactive).
In the case of `Nc1cccc2cccnc12`, the IC50 is reported as > 79000 nM (inactive).
With `Cc1ccc2cccc(N)c2n1` the IC50 was > 79000 nM (inactive).
In the case of `O=S(=O)(Nc1cccc2cccnc12)c1ccccc1`, the IC50 is reported as 1400 nM.
`Cc1ccc(S(=O)(=O)Nc2cccc3cccnc23)cc1` was tested, and the IC50 was 2210 nM.
For `Cc1ccc(S(=O)(=O)Nc2cccc3ccc(C)nc23)cc1`, the IC50 was 2740 nM.
`COc1cc(NS(=O)(=O)c2ccccc2)c2ncccc2c1` was tested, and the IC50 was 1290 nM.
`COc1cc(NS(=O)(=O)c2ccc(C)cc2)c2ncccc2c1` gave an IC50 of 2580 nM.
